Assay results from patent US20170088532A1, “INHIBITORS OF LPXC” (The Regents of the University of California, priority 2013, published 2017).
Like-named read-outs stand apart in the source and are kept apart here.

Target: T1, E. Coli LpxC (Escherichia coli, UniProt P0A725)
T1 sequence (P0A725 1-305): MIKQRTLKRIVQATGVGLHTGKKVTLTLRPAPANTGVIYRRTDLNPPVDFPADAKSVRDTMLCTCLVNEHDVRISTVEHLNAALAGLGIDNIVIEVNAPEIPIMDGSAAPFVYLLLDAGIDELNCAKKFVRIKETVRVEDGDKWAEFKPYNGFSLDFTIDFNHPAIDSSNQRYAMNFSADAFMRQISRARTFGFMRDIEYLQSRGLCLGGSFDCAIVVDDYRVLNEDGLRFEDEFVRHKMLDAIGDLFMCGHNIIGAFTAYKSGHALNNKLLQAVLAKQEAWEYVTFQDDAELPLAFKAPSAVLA
Test: Inhibition of LpxC from E. coli
Assay type: biochemical
Conditions: for inhibition at 50 µM: compound at 50 μM
Description: Methods for assessing inhibition of LpxC are known in the art.

[1] = Table 1, read-out: % Inhibition E. Coli LpxC at 50 μM
[2] = Table 2, values in parentheses, read-out: (% Inhibition of E. Coli LpxC at 50 μM)

| SMILES | inhibition at 50 µM [1] | inhibition at 50 µM [2] | IC50 (E. Coli LpxC, Table 2, values without parentheses) |
| --- | --- | --- | --- |
| O=c1cc(CO)oc(CNc2ccc(-c3ccccc3)cc2)c1O [Compound 010] | 39% | 39% | – |
| O=c1ccoc(CNc2ccc(-c3ccccc3)cc2)c1O [Compound 013] | 67% | 67% | – |
| Cc1cc(=O)c(O)c(CNc2ccc(-c3ccccc3)cc2)o1 [Compound 014] | 23% | 23% | – |
| COc1ccc(-c2ccc(NCc3oc(CO)cc(=O)c3O)cc2)cc1 [Compound 018, 3-hydroxy-6-(hydroxymethyl)-2-(((4′-methoxy-[1,1′-biphenyl]-4-yl)amino)methyl)-4H-pyran-4-one] | 81% | – | 12.7 µM |
| COc1ccc(-c2ccc(NCc3occc(=O)c3O)cc2)cc1 [Compound 027] | 13% | 13% | – |
| COC(=O)c1cc(=O)c(O)c(CNc2ccc(-c3ccc(OC)cc3)cc2)o1 [Compound 035] | 29% | 29% | – |
